Results taken from patent US20230072683A1, “PYRIDO-PYRIMIDIN DERIVATIVES AND PHARMACEUTICAL COMPOSITION, FOR USE IN PREVENTING OR TREATING PI3 KINASE RELATED DISEASES, COMPRISING SAME AS ACTIVE INGREDIENT” (BORYUNG PHARMACEUTICAL CO., LTD, priority 2019, published 2023).

Assays:
[1] = molecular target: PI3K-δ (PI3K(p1108/p857) (h)) (Homo sapiens, UniProt O00329); assay: Evaluation of inhibitory activity against PI3K-δ (HTRF kinase assay); format: biochemical; conditions: for inhibition at 0.01 µM: compound concentration 0.01 μM, read-out: EXP_VALUE(% Inhibition) PI3K-δ 0.01 μM; for inhibition at 0.1 µM: compound concentration 0.1 μM, read-out: EXP_VALUE(% Inhibition) PI3K-δ 0.1 μM
Method in brief: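 HTRF read-out (665/620 nm ratio ×10000) used Eu-labelled anti-GST, GST-tagged GRP1 PH domain and streptavidin-allophycocyanin after EDTA/PIP3 stop.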

DNA-PK(h) = DNA-PK(h) (Homo sapiens, UniProt P78527); assay: Evaluation of inhibitory activity against DNA-PK (HTRF kinase assay, GST-cMyc-p53 substrate); format: biochemical; conditions: for inhibition at 0.01 µM: compound concentration 0.01 μM, read-out: EXP_VALUE(% Inhibition) DNA-PK(h) 0.01 μM; for inhibition at 0.1 µM: compound concentration 0.1 μM, read-out: EXP_VALUE(% Inhibition) DNA-PK(h) 0.1 μM
Method in brief: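 p53 Ser15 phosphorylation by human DNA-PK was measured by time-resolved FRET ratio (665/620 nm ×10000) using Eu-labelled anti-phospho-Ser15 and d2 anti-GST antibodies. Substrate GST-cMyc-p53 at 50 μM; Mg/ATP-initiated, 30 min at room temperature, EDTA stop.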

Sequence of PI3K-δ (PI3K(p1108/p857) (h)) (O00329 whole entry, the tested form may be a part): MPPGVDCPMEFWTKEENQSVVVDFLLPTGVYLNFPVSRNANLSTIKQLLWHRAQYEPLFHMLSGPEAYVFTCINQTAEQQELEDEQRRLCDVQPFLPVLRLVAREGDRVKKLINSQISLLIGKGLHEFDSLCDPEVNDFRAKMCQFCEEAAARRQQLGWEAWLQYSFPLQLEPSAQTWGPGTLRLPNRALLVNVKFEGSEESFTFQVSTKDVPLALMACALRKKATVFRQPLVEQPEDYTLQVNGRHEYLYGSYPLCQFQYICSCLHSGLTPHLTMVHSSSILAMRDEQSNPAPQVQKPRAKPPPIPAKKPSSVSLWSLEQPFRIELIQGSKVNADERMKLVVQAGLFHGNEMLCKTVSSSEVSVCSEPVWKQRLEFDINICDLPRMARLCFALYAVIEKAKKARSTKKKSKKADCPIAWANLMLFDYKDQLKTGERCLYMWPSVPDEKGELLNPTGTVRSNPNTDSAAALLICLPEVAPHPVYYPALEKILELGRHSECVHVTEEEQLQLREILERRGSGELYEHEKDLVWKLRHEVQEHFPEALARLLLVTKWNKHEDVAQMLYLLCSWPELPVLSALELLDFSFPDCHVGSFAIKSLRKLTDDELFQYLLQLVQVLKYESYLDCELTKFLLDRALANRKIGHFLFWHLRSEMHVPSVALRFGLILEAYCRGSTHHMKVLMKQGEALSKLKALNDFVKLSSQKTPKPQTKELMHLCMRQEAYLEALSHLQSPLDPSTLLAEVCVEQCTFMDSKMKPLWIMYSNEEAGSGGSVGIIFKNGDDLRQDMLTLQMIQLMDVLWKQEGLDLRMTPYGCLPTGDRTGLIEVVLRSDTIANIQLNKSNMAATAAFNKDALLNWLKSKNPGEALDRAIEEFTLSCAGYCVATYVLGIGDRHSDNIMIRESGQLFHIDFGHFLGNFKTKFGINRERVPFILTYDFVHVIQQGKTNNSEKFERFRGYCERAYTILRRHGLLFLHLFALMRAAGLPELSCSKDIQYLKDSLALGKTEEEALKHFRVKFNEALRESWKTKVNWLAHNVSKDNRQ
Sequence of PI3K-δ (PI3K(p1108/p857) (h)) (P27986 whole entry partner, the tested form may be a part): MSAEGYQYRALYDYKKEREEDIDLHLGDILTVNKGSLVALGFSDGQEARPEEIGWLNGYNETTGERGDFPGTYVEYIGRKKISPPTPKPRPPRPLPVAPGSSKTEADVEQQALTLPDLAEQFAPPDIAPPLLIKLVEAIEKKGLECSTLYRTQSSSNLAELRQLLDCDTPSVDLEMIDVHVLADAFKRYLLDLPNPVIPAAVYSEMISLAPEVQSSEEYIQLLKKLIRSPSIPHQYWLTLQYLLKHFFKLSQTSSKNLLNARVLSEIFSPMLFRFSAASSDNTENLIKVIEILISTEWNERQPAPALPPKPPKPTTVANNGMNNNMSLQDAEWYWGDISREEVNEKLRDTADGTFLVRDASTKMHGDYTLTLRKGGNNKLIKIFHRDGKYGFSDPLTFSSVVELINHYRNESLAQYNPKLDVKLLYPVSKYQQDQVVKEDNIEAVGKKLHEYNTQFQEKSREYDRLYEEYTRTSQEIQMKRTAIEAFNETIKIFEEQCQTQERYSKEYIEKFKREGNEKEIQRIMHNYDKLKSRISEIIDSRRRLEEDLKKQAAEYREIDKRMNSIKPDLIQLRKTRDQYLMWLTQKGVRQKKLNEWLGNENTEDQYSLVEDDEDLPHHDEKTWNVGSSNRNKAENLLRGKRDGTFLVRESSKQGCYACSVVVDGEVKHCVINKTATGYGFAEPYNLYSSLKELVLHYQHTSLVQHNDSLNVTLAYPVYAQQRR

In the case of `C[C@H](Nc1ncnc2[nH]ccc(=O)c12)c1c(Cl)c2cccc(-c3ccc(C(=O)O)nc3)c2c(=O)n1-c1ccccc1` [Example 47, (S)-5-(4-chloro-1-oxo-3-(1-((5-oxo-5,8-dihydropyrido[2,3-d]pyrimidin-4-yl)amino)ethyl)-2-phenyl-1,2-dihydroisoquinolin-8-yl)picolinic acid], the inhibition at 0.01 µM [1] is reported as 86% and the inhibition at 0.01 µM (DNA-PK(h)) is reported as 48%.

For `C[C@H](Nc1ncnc2[nH]ccc(=O)c12)c1c(Cl)c2cccc(-c3cnc4ccccc4n3)c2c(=O)n1-c1ccccc1` [Example 48, (S)-4-((1-(4-chloro-1-oxo-2-phenyl-8-(quinoxalin-2-yl)-1,2-dihydroisoquinolin-3-yl)ethyl)amino)pyrido[2,3-d]pyrimidin-5(8H)-one], the inhibition at 0.01 µM [1] was 7% and the inhibition at 0.01 µM (DNA-PK(h)) was -5%.

`COc1cc(-c2cccc3c(Cl)c([C@H](C)Nc4ncnc5[nH]ccc(=O)c45)n(-c4ccccc4)c(=O)c23)nc(OC)n1` [Example 49, (S)-4-((1-(4-chloro-8-(2,6-dimethoxypyrimidin-4-yl)-1-oxo-2-phenyl-1,2-dihydroisoquinolin-3-yl)ethyl)amino)pyrido[2,3-d]pyrimidin-5(8H)-one] showed an inhibition at 0.01 µM [1] of 23% and an inhibition at 0.01 µM (DNA-PK(h)) of -3%.

`C[C@H](Nc1ncnc2[nH]ccc(=O)c12)c1c(Cl)c2cccc(-c3cc(O)ncn3)c2c(=O)n1-c1ccccc1` [Example 50, (S)-4-((1-(4-chloro-8-(6-hydroxypyrimidin-4-yl)-1-oxo-2-phenyl-1,2-dihydroisoquinolin-3-yl)ethyl)amino)pyrido[2,3-d]pyrimidin-5(8H)-one] gave an inhibition at 0.01 µM [1] of 96% and an inhibition at 0.01 µM (DNA-PK(h)) of 53%.

Work on `C[C@H](Nc1ncnc2[nH]ccc(=O)c12)c1c(Cl)c2cccc(-c3cnc(C(F)(F)F)cn3)c2c(=O)n1-c1ccccc1` [Example 51, (S)-4-((1-(4-chloro-1-oxo-2-phenyl-8-(5-(trifluoromethyl)pyrazin-2-yl)-1,2-dihydroisoquinolin-3-yl)ethyl)amino)pyrido[2,3-d]pyrimidin-5(8H)-one] yielded an inhibition at 0.01 µM [1] of 6% and an inhibition at 0.01 µM (DNA-PK(h)) of -15%.

In the case of `C[C@H](Nc1ncnc2[nH]ccc(=O)c12)c1c(Cl)c2cccc(-c3ncc(C(F)(F)F)cn3)c2c(=O)n1-c1ccccc1` [Example 52, (S)-4-((1-(4-chloro-1-oxo-2-phenyl-8-(5-(trifluoromethyl)pyrimidin-2-yl)-1,2-dihydroisoquinolin-3-yl)ethyl)amino)pyrido[2,3-d]pyrimidin-5(8H)-one], the inhibition at 0.01 µM [1] is reported as 13% and the inhibition at 0.01 µM (DNA-PK(h)) is reported as -2%.

`C[C@H](Nc1ncnc2[nH]ccc(=O)c12)c1c(Cl)c2cccc(-c3ncc(F)cn3)c2c(=O)n1-c1ccccc1` [Example 53, (S)-4-((1-(4-chloro-8-(5-fluoropyrimidin-2-yl)-1-oxo-2-phenyl-1,2-dihydroisoquinolin-3-yl)ethyl)amino)pyrido[2,3-d]pyrimidin-5(8H)-one] showed an inhibition at 0.01 µM [1] of 11% and an inhibition at 0.01 µM (DNA-PK(h)) of -3%.

With `C[C@H](Nc1ncnc2[nH]ccc(=O)c12)c1c(Cl)c2cccc(-c3cnc(C4CCC4)nc3)c2c(=O)n1-c1ccccc1` [Example 54, (S)-4-((1-(4-chloro-8-(2-cyclobutylpyrimidin-5-yl)-1-oxo-2-phenyl-1,2-dihydroisoquinolin-3-yl)ethyl)amino)pyrido[2,3-d]pyrimidin-5(8H)-one] the inhibition at 0.01 µM [1] was 55% and the inhibition at 0.01 µM (DNA-PK(h)) was 42%.

`COCc1ncc(-c2cccc3c(Cl)c([C@H](C)Nc4ncnc5[nH]ccc(=O)c45)n(-c4ccccc4)c(=O)c23)cn1` [Example 55, (S)-4-((1-(4-chloro-8-(2-(methoxymethyl)pyrimidin-5-yl)-1-oxo-2-phenyl-1,2-dihydroisoquinolin-3-yl)ethyl)amino)pyrido[2,3-d]pyrimidin-5(8H)-one] gave an inhibition at 0.01 µM [1] of 59% and an inhibition at 0.01 µM (DNA-PK(h)) of 44%.

Work on `C[C@H](Nc1ncnc2[nH]ccc(=O)c12)c1c(Cl)c2cccc(-c3cnc(N)nc3)c2c(=O)n1-c1ccccc1` [Example 56, (S)-4-((1-(8-(2-aminopyrimidin-5-yl)-4-chloro-1-oxo-2-phenyl-1,2-dihydroisoquinolin-3-yl)ethyl)amino)pyrido[2,3-d]pyrimidin-5(8H)-one] yielded an inhibition at 0.01 µM [1] of 81% and an inhibition at 0.01 µM (DNA-PK(h)) of 78%.

`CC(O)c1ccc(-c2cccc3c(Cl)c([C@H](C)Nc4ncnc5[nH]ccc(=O)c45)n(-c4ccccc4)c(=O)c23)cc1` (stereo partly drawn) [Example 57, 4-(((1S)-1-(4-chloro-8-(4-(1-hydroxyethyl)phenyl)-1-oxo-2-phenyl-1,2-dihydroisoquinolin-3-yl)ethyl)amino)pyrido[2,3-d]pyrimidin-5(8H)-one] was tested, and the inhibition at 0.01 µM [1] was 97% and the inhibition at 0.01 µM (DNA-PK(h)) was 80%.

With `Cc1cc(-c2cccc3c(Cl)c([C@H](C)Nc4ncnc5[nH]ccc(=O)c45)n(-c4ccccc4)c(=O)c23)cnc1O` [Example 58, (S)-4-((1-(4-chloro-8-(6-hydroxy-5-methylpyridin-3-yl)-1-oxo-2-phenyl-1,2-dihydroisoquinolin-3-yl)ethyl)amino)pyrido[2,3-d]pyrimidin-5(8H)-one] the inhibition at 0.01 µM [1] was 95% and the inhibition at 0.01 µM (DNA-PK(h)) was 87%.

For `C[C@H](Nc1ncnc2[nH]ccc(=O)c12)c1c(Cl)c2cccc(-c3cncnc3C3CCCC3)c2c(=O)n1-c1ccccc1` [Example 59, (S)-4-((1-(4-chloro-8-(4-cyclopentylpyrimidin-5-yl)-1-oxo-2-phenyl-1,2-dihydroisoquinolin-3-yl)ethyl)amino)pyrido[2,3-d]pyrimidin-5(8H)-one], the inhibition at 0.01 µM [1] was 70% and the inhibition at 0.01 µM (DNA-PK(h)) was 32%.

In the case of `C[C@H](Nc1ncnc2[nH]ccc(=O)c12)c1c(Cl)c2cccc(-c3ccc4c(c3)OCO4)c2c(=O)n1-c1ccccc1` [Example 60, (S)-4-((1-(8-(benzo[d][1,3]dioxol-5-yl)-4-chloro-1-oxo-2-phenyl-1,2-dihydroisoquinolin-3-yl)ethyl)amino)pyrido[2,3-d]pyrimidin-5(8H)-one], the inhibition at 0.01 µM [1] is reported as 94% and the inhibition at 0.01 µM (DNA-PK(h)) is reported as 74%.

`COc1ncc(-c2cccc3c(Cl)c([C@H](C)Nc4ncnc5[nH]ccc(=O)c45)n(-c4ccccc4)c(=O)c23)cc1[N+](=O)[O-]` [Example 61, (S)-4-((1-(4-chloro-8-(6-methoxy-5-nitropyridin-3-yl)-1-oxo-2-phenyl-1,2-dihydroisoquinolin-3-yl)ethyl)amino)pyrido[2,3-d]pyrimidin-5(8H)-one] gave an inhibition at 0.01 µM [1] of 89% and an inhibition at 0.01 µM (DNA-PK(h)) of 67%.

In the case of `C[C@H](Nc1ncnc2[nH]ccc(=O)c12)c1c(Cl)c2cccc(-c3ccccc3)c2c(=O)n1-c1ccccc1` [Example 62, (S)-4-((1-(4-chloro-1-oxo-2,8-diphenyl-1,2-dihydroisoquinolin-3-yl)ethyl)amino)pyrido[2,3-d]pyrimidin-5(8H)-one], the inhibition at 0.01 µM [1] is reported as 99%, the inhibition at 0.1 µM [1] is reported as 109% and the inhibition at 0.01 µM (DNA-PK(h)) is reported as 54%. It also gave an inhibition at 0.1 µM (DNA-PK(h)) of 89%.

Compound `C[C@H](Nc1ncnc2[nH]ccc(=O)c12)c1c(Cl)c2cccc(-c3ccc(F)cc3)c2c(=O)n1-c1ccccc1` [Example 63, (S)-4-((1-(4-chloro-8-(4-fluorophenyl)-1-oxo-2-phenyl-1,2-dihydroisoquinolin-3-yl)ethyl)amino)pyrido[2,3-d]pyrimidin-5(8H)-one] has an inhibition at 0.01 µM [1] of 95%, an inhibition at 0.1 µM [1] of 96% and an inhibition at 0.01 µM (DNA-PK(h)) of 44%. For the same compound, the inhibition at 0.1 µM (DNA-PK(h)) was 84%.

In the case of `COc1ccc(-c2cccc3c(Cl)c([C@H](C)Nc4ncnc5[nH]ccc(=O)c45)n(-c4ccccc4)c(=O)c23)cc1` [Example 64, (S)-4-((1-(4-chloro-8-(4-methoxyphenyl)-1-oxo-2-phenyl-1,2-dihydroisoquinolin-3-yl)ethyl)amino)pyrido[2,3-d]pyrimidin-5(8H)-one], the inhibition at 0.01 µM [1] is reported as 93%, the inhibition at 0.1 µM [1] is reported as 101% and the inhibition at 0.01 µM (DNA-PK(h)) is reported as 51%. The inhibition at 0.1 µM (DNA-PK(h)) was 86%.

`C[C@H](Nc1ncnc2[nH]ccc(=O)c12)c1c(C2CC2)c2cccc(Cl)c2c(=O)n1-c1ccccc1` [Example 65, (S)-4-((1-(8-chloro-4-cyclopropyl-1-oxo-2-phenyl-1,2-dihydroisoquinolin-3-yl)ethyl)amino)pyrido[2,3-d]pyrimidin-5(8H)-one] showed an inhibition at 0.01 µM [1] of 89%, an inhibition at 0.1 µM [1] of 110% and an inhibition at 0.01 µM (DNA-PK(h)) of 58%. It also gave an inhibition at 0.1 µM (DNA-PK(h)) of 90%.

`C[C@H](Nc1ncnc2[nH]ccc(=O)c12)c1c(Cl)c2cccc(C3CC3)c2c(=O)n1-c1ccccc1` [Example 66, (S)-4-((1-(4-chloro-8-cyclopropyl-1-oxo-2-phenyl-1,2-dihydroisoquinolin-3-yl)ethyl)amino)pyrido[2,3-d]pyrimidin-5(8H)-one] showed an inhibition at 0.01 µM [1] of 72%, an inhibition at 0.1 µM [1] of 103% and an inhibition at 0.01 µM (DNA-PK(h)) of 59%. For the same compound, the inhibition at 0.1 µM (DNA-PK(h)) was 92%.

`Cc1cc(C#N)ccc1-c1cccc2c(Cl)c([C@H](C)Nc3ncnc4[nH]ccc(=O)c34)n(-c3ccccc3)c(=O)c12` [Example 67, (S)-4-(4-chloro-1-oxo-3-(1-((5-oxo-5,8-dihydropyrido[2,3-d]pyrimidin-4-yl)amino)ethyl)-2-phenyl-1,2-dihydroisoquinolin-8-yl)-3-methylbenzonitrile] was tested, and the inhibition at 0.01 µM [1] was 82%, the inhibition at 0.1 µM [1] was 92% and the inhibition at 0.01 µM (DNA-PK(h)) was 56%. The inhibition at 0.1 µM (DNA-PK(h)) was 86%.

`C[C@H](Nc1ncnc2[nH]ccc(=O)c12)c1c(Cl)c2cccc(-c3cnc(Cl)c4ccccc34)c2c(=O)n1-c1ccccc1` [Example 69, (S)-1,4′-dichloro-3′-(1-((5-oxo-5,8-dihydropyrido[2,3-d]pyrimidin-4-yl)amino)ethyl)-2′-phenyl-(4,8′-biisoquinolin)-1′(2′H)-one] was tested, and the inhibition at 0.01 µM [1] was 3.3%, the inhibition at 0.1 µM [1] was 14.5% and the inhibition at 0.01 µM (DNA-PK(h)) was 3%. It also gave an inhibition at 0.1 µM (DNA-PK(h)) of 2.7%.
